We go through one molecule from PMC3919815, “Anti-Tumor Effects of Novel 5-O-Acyl Plumbagins Based on the Inhibition of Mammalian DNA Replicative Polymerase Activity” (PLoS ONE, 2014).

One test has as its target Calf primase of pol α (Bos taurus, UniProt A0A3Q1MF00). Put plainly: Other DNA metabolic enzyme assay. Type of test: biochemical. The procedure: (§1) The activities of calf primase of pol α, T7 RNA polymerase, mouse inosine-5′-[…] (IMP) dehydrogenase (type II), T4 polynucleotide kinase, and bovine deoxyribonuclease I were measured in standard assays according to the manufacturer's specifications, as described by Tamiya-Koizumi et al., Nakayama and Saneyoshi, Mizushina et al., Soltis et al., and Lu and Sakaguchi, respectively.

In test [1] the target is Mouse IMP dehydrogenase (type II) (Mus musculus, UniProt P24547). In words: Other DNA metabolic enzyme assay. The test is classed as biochemical. The procedure:
as §1

Test [2] addresses T1, Bovine deoxyribonuclease I (Bos taurus, UniProt P00639).
T1 construct: Bovine pancreas deoxyribonuclease I was obtained from Stratagene Cloning Systems; purchased Stratagene Cloning Systems (La Jolla, CA, USA); host or cells: bovine pancreas
In words: Other DNA metabolic enzyme assay. The test is classed as biochemical.
Excerpt: (§2) Pol α was purified from calf thymus by immunoaffinity column chromatography as described by Tamai et al.. Recombinant rat pol β was purified from Escherichia coli JMpβ5 as described by Date et al.. The human pol γ catalytic gene was cloned into pFastBac. Histidine-tagged enzyme was expressed using the BACTO-BAC HT Baculovirus Expression System according to the manufacturer's instructions (Life Technologies, Frederick, MD, USA) and purified using ProBound resin (Invitrogen Japan, Tokyo Japan). Human pols δ and ε were purified by nuclear fractionation of human peripheral blood cancer cells (Molt-4) using the second subunit of pol δ and ε-conjugated affinity column chromatography, respectively. A truncated form of human pol η (residues 1–511) tagged with His6 at its C-terminal was expressed in E. coli cells and purified as described by Kusumoto et al.. A recombinant mouse pol ι tagged with His6 at its C-terminal was expressed and purified by Ni–NTA column chromatography. A truncated form of pol κ (residues 1–560) with 6× His-tags attached at the C-terminus was overexpressed in E. coli and purified as described by Ohashi et al.. Recombinant human His-pol λ was overexpressed and purified according to a method described by Shimazaki et al.. Recombinant human His-pol μ was overexpressed in E. coli BL21 and purified using Glutathione Sepharose 4B (GE Healthcare Bio-Science Corp., Piscataway, NJ, USA) column chromatography according to the method for pol λ preparation by Shimazaki et al.. Pol α from a higher plant, cauliflower, was purified from the inflorescence structure according to the methods outlined by Sakaguchi et al.. Recombinant rice (Oryza sativa L. cv. Nipponbare) pol λ tagged with His6 at the C-terminus was expressed in E. coli and purified as described by Uchiyama et al.. Calf TdT, Taq pol, T4 pol, T7 RNA polymerase, and T4 polynucleotide kinase were purchased from Takara Bio Inc. (Kyoto, Japan). The Klenow fragment of pol I from E. coli was purchased from Worthington Biochemical Corp. (Freehold, NJ, USA). Bovine pancreas deoxyribonuclease I was obtained from Stratagene Cloning Systems (La Jolla, CA, USA).
as §1

The next test addresses T2, T4 polynucleotide kinase (Enterobacteria phage T4, UniProt P06855).
T2 construct: purchased Takara Bio Inc. (Kyoto, Japan)
In words: Other DNA metabolic enzyme assay. The test is classed as biochemical.
Excerpt: as §2, §1

The target of a further test is T3, T7 RNA polymerase (Escherichia phage T7, UniProt P00573).
T3 construct: purchased Takara Bio Inc. (Kyoto, Japan)
T3 sequence (P00573 whole entry): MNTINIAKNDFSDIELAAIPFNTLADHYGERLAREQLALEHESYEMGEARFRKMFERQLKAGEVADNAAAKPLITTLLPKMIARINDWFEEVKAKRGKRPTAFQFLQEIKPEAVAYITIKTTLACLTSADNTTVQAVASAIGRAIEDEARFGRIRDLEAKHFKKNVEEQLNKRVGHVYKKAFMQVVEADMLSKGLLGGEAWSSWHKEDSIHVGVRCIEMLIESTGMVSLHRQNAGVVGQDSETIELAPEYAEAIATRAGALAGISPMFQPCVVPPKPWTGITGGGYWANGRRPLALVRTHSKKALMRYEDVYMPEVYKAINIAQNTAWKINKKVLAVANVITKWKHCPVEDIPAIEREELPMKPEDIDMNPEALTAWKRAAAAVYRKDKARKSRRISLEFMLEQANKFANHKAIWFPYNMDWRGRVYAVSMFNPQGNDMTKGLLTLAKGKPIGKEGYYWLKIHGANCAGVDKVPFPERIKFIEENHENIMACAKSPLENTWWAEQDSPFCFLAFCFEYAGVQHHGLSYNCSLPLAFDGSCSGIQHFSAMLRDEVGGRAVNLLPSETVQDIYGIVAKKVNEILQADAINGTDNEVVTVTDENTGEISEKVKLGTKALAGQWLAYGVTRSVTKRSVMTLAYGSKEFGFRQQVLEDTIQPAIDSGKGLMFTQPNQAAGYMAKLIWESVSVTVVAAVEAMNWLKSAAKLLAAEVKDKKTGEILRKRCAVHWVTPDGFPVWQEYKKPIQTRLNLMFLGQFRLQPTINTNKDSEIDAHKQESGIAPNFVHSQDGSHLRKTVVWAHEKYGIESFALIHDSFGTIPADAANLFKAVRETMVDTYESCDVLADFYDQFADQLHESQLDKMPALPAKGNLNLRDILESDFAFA
Put plainly: Other DNA metabolic enzyme assay. The test is classed as biochemical.
Excerpt: as §2, §1

For the next test, the system named is A549 (lung cancer). In words: Cancer cell viability, MTT assay. The test is classed as cell-based, human. The following applies: 48 h, mean ± SD (n = 5). As for the experimental part:
(§3) The following human cancer cell lines were obtained from the American Type Culture Collection (Manassas, VA, USA): lung (A549), prostate (DU145 and PC3), colon (HCT116 and HT-29), cervix (HeLa), hepatocellular liver (HepG2), breast (MCF-7), and pancreatic cancer (PANC-1). These cells were cultured in RPMI 1640 medium supplemented with 10% fetal bovine serum, penicillin (100 units/mL), streptomycin (100 µg/mL), and 1.6 mg/mL NaHCO3 at 37°C in a humid atmosphere of 5% CO2/95% air. For the cell viability assay, cells were seeded at 1×10^3 cells/well in a 96-well microplate with various concentrations of the test compounds, and incubated for 48 h. MTT (3-(4,5-dimethylthiazol-2-yl)-2,5-diphenyl tetrazolium bromide) solution was added to a final concentration 0.6 mg/mL in Milli-Q purified water for 2 h, after which time the medium was discarded and the cells lysed in DMSO. A540 was then measured in a microplate reader (Model 680, Bio-Rad Laboratories, Hercules, CA, USA).

In another test the test system is DU145 (prostate cancer). Put plainly: Cancer cell viability, MTT assay. The test is classed as cell-based, human. The settings on record: 48 h, mean ± SD (n = 5). As for the experimental part: as §3
The subject of the next test is HCT116 (colon cancer). In words: Cancer cell viability, MTT assay. The following applies: 48 h. Type of test: cell-based, human. As for the experimental part: as §3
A general note: Tetrazolium dyes change colour on reduction, which living cells bring about.

For the next test, the system named is MCF-7 (breast cancer). In words: Cancer cell viability, MTT assay. The settings on record: 48 h, mean ± SD (n = 5). The test is classed as cell-based, human. The procedure:
as §3

The next test has as its system mammalian pols. In words: DNA polymerase activity inhibition, summary over the panel. Type of test: biochemical.
Excerpt: as §2
The reaction mixtures for calf pol α, rat pol β, plant pol α, and prokaryotic pols have been described previously, [35]; those for pol γ as well as pols δ and ε were previously described by Umeda et al. and Ogawa et al., respectively. Those for pols η, ι, and κ were the same as for pol α, and those for pols λ and μ were the same as for pol β. For the pol reactions, poly(dA)/oligo(dT)18 (A/T, 2/1) and dTTP were used as the DNA template-primer substrate and nucleotide (dNTP; 2′-deoxynucleoside-5′-triphosphate) substrate, respectively. For the TdT reactions, oligo(dT)18 (3′-OH) and dTTP were used as the DNA primer substrate and nucleotide substrate, respectively.
The chemically synthesized 5-O-acyl plumbagins (2a–j) were dissolved in distilled dimethyl sulfoxide (DMSO) to various concentrations and sonicated for 30 s. Subsequently, 4 µL aliquots were mixed with 16 µL of each enzyme (0.05 units) in 50 mM Tris-HCl at pH 7.5, containing 1 mM dithiothreitol, 50% glycerol (by vol), and 0.1 mM ethylenediaminetetraacetic acid and held at 0°C for 10 min. These inhibitor-enzyme mixtures in 8 µL volumes were next added to 16 µL of enzyme standard reaction mixture and incubated at 37°C for 60 min, except for Taq pol, which was incubated at 74°C for 60 min. Activity without inhibitor was considered 100%, and the relative activity was determined for each inhibitor concentration. One unit of pol activity was defined as the amount of each enzyme that catalyzed the incorporation of 1 nmol dTTP into synthetic DNA template primers in 60 min, at 37°C, and under standard reaction conditions, [35].

Where “and” joins values, the source holds several entries; their conditions need not be identical. Equal values may be shown once. Read-outs that look alike come from different tables or passages of the source.

Chain of Calf primase of pol α (A0AAA9THK8 entry or part of it): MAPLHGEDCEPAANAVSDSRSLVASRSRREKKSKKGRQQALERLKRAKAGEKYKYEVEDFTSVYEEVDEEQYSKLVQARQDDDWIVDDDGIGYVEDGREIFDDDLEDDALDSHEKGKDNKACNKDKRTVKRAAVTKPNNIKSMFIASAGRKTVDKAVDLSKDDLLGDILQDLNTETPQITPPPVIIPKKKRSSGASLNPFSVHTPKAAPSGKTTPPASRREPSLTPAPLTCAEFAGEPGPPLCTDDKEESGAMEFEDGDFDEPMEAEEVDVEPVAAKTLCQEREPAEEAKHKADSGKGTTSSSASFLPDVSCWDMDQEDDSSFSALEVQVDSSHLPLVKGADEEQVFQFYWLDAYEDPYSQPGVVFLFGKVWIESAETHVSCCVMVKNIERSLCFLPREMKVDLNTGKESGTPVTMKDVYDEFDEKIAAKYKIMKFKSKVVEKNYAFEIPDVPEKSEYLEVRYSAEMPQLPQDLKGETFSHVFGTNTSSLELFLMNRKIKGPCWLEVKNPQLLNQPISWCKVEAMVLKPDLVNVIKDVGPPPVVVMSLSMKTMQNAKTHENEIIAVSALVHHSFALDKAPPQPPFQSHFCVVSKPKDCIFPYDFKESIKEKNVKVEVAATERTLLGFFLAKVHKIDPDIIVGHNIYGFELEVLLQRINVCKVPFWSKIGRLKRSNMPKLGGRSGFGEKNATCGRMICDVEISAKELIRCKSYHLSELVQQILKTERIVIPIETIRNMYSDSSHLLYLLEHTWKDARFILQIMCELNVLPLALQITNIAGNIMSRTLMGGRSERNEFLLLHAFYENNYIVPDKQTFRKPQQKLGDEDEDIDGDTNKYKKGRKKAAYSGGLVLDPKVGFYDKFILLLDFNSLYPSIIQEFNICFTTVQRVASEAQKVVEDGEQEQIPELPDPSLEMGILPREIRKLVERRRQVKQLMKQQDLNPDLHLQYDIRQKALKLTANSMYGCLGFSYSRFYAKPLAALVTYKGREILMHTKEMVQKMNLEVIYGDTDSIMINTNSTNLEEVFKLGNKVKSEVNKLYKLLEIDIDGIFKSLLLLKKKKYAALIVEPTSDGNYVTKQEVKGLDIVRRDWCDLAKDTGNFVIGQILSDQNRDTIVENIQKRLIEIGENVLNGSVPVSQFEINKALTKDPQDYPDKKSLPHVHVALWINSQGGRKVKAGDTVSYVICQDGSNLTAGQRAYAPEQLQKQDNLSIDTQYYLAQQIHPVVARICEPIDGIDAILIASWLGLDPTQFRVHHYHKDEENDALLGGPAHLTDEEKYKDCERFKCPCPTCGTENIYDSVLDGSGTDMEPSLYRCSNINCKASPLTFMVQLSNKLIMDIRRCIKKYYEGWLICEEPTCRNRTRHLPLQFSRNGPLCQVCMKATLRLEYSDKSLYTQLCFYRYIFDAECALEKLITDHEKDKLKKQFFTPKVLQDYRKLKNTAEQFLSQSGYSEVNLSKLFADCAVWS
Chain of Calf primase of pol α (A0JNF4 entry or part of it, further chain): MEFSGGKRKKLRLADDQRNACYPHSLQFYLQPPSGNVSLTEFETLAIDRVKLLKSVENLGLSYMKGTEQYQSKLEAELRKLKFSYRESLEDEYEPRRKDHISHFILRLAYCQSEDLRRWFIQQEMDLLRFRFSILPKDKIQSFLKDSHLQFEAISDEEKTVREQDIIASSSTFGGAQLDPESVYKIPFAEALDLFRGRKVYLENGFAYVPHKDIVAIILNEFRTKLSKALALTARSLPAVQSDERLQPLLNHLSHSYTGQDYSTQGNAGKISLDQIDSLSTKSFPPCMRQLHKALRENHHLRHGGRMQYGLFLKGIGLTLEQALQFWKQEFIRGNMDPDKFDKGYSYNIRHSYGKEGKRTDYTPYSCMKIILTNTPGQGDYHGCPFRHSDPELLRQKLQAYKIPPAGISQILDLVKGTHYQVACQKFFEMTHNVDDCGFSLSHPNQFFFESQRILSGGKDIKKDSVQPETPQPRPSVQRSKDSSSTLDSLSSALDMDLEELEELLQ
Chain of Calf primase of pol α (A0A3Q1MF00 entry or part of it): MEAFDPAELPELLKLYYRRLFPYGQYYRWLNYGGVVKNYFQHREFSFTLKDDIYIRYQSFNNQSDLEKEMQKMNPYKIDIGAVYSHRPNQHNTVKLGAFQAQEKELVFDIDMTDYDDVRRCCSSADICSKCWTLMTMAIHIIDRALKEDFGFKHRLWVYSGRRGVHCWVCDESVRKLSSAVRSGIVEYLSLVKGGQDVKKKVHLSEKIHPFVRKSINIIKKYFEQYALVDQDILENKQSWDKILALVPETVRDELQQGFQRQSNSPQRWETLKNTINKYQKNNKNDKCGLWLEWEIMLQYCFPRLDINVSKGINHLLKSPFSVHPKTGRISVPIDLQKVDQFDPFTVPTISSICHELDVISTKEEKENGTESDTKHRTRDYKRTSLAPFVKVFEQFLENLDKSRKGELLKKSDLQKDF
Chain of Calf primase of pol α (Q58D13 whole entry, further chain): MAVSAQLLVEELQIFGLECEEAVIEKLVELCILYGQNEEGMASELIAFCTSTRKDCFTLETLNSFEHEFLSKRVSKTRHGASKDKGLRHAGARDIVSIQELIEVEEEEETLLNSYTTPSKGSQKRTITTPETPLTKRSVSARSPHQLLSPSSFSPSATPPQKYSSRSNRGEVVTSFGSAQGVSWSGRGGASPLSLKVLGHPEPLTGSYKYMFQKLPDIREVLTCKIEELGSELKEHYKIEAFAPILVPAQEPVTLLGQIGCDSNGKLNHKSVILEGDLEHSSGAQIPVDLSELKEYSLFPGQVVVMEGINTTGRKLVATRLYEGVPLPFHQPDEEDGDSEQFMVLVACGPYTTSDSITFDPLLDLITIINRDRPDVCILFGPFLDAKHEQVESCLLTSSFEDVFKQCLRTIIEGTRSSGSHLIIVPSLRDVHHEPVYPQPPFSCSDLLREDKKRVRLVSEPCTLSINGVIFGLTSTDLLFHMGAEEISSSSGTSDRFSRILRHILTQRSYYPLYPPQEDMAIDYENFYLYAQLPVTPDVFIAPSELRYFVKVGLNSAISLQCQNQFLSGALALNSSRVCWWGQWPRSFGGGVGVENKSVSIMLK
T2 sequence (P06855 whole entry): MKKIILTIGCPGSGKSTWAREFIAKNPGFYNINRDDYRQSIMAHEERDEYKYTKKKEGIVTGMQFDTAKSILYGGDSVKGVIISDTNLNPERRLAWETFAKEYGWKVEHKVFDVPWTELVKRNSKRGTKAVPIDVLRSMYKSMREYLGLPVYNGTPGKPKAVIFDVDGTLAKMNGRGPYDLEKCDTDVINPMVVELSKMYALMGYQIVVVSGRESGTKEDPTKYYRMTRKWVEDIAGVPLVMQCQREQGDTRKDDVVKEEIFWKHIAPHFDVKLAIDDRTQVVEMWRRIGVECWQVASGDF
T1 sequence (P00639 23-282): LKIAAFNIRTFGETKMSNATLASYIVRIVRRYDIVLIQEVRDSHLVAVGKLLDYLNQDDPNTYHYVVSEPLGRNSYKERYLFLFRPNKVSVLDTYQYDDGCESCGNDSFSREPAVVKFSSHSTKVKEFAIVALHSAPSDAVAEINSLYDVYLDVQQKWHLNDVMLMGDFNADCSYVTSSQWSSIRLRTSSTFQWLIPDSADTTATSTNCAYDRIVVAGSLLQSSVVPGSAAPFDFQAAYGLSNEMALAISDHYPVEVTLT
Chain of Mouse IMP dehydrogenase (type II) (P24547 whole entry): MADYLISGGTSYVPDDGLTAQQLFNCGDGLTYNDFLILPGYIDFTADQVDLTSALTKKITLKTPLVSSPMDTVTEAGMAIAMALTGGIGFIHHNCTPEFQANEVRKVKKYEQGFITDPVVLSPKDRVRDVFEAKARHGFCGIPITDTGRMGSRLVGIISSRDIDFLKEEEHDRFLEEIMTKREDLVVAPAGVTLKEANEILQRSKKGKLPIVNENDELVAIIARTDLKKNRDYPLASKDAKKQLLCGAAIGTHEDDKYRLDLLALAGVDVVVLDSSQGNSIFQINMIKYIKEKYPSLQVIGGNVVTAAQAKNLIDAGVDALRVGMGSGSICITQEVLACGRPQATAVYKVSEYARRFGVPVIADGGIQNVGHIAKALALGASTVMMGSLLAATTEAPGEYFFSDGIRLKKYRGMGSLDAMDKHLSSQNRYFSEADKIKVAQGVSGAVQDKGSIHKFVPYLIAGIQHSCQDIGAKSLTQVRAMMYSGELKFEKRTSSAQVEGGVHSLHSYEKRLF

Regarding `CCCCCCCC/C=C\CCCCCCCC(=O)Oc1cccc2c1C(=O)C=C(C)C2=O` [2f, 5-O-oleoyl-2-methyl-1,4-naphthoquinone], the “effect on enzyme activity (in words)” value (at Calf primase of pol α; in test [1]; in test [2]; on T4 polynucleotide kinase; at T7 RNA polymerase) was “did not inhibit” each time. For the same molecule, the IC50 against Calf primase of pol α (0.05 units enzyme) is above 100 µM; in test [1] (0.05 units enzyme), above 100 µM; in test [2] (0.05 units enzyme) it was above 100 µM; at T4 polynucleotide kinase (0.05 units enzyme), above 100 µM; against T7 RNA polymerase (0.05 units enzyme), above 100 µM; at mammalian pols (B family of pols, read-out: 50% inhibition dose), 4.8 to 5.3 µM. Further, the IC50 on mammalian pols (X family of pols, read-out: 50% inhibition dose) lay within 9.2 to 10.6 µM; on mammalian pols (Y family of pols, read-out: 50% inhibition dose) it was 7.6 to 8.2 µM; on mammalian pols (all of the mammalian pols (11 species), read-out: IC50 values) it was 4.5 to 10.6 µM. In addition, the LD50 values in the test on A549 (lung cancer) was 15.4 ± 1.7 µM; in the test with DU145 (prostate cancer), 8.8 ± 0.9 µM; with HCT116 (colon cancer) (MTT assay, mean ± SD (n = 5)), 6.5 µM and 6.5 ± 0.6 µM; with MCF-7 (breast cancer), 7.2 ± 0.7 µM. In addition, in the test on HCT116 (colon cancer) (10 µM, MTT, control = 100%), the cell proliferation rate result is “less than 40%”. In addition, the “cell proliferation inhibitory effect compared among the compounds (in words)” value in the test with HCT116 (colon cancer) (10 and 100 µM, MTT, Fig. 5) is “strongest effects on cancer cell proliferation suppression”. Further, the “inhibitory effect on A and B families of pols, fold stronger than on X and Y families” value in the test with mammalian pols is on record as 1.5- to 2 fold. In the test with mammalian pols (data not shown), the “influence of excess poly(rC) and BSA on pol inhibition” value is “little or no influence”. Also, the “pol inhibitory activity, fold more potent than aphidicolin” value with mammalian pols (pols α, δ and ε, versus aphidicolin IC50 of ref 45) is recorded as above 2 fold.
